Source: patent US20260041780A1, “ANTIBODY-DRUG CONJUGATE AND USE THEREOF” (MINGHUI PHARMACEUTICAL (HANGZHOU) LIMITED, priority 2022, published 2026)

How the values were obtained:
Test in all cases: Inhibition of in vitro proliferation of tumor cells (CellTiter Glo)
Format in all cases: cell-based, human
Calu-6 = settings: Calu-6, 120 h incubation
Procedure: (§1) Human-derived tumor cells in logarithmic growth phase were taken, trypsin-digested and resuspended using fresh complete culture medium, counted and adjusted to an appropriate concentration, and added into 96-well cell culture plate at 100 μL/well. The cell culture plate was placed in a 37° C., 5% CO2 incubator and incubated overnight. On the next day, different concentrations of ADC samples to be tested (with the highest final concentration of 1 μM, and 4-fold gradient dilution) or buffer control were added to the corresponding wells of the cell culture plate, and continued to be incubated in a CO2 incubator for 120 h. After equilibrated to room temperature, the test plate was analyzed by using a CellTiter Glo assay kit (Promega, G7558) and a multifunctional enzyme labeling instrument (Enspire 2300, PerkinElmer) to detect luminescence readings. The cellular inhibition rate was calculated according to the following equation: inhibition rate (%)=(1−(RLUADC−RLUblank)/(RLUbuffer−RLUblank))×100%, wherein, RLU represents Relative Luminescence Units. XLFit was utilized to plot the pharmacodynamic inhibition rate curve and to calculate the IC50 values (see Tables 4 and 5).

HepG2 = settings: HepG2, 120 h incubation
Procedure: as §1

NCI-H1975 = settings: NCI-H1975, 120 h incubation
Procedure: as §1

NCI-N87 = settings: NCI-N87, 120 h incubation
Procedure: as §1

“Control ADC2: antibody Ifinatamab conjugated with linker-payload MC-GGFG-DXd” showed an IC50 (Calu-6) of 126 nM, an IC50 (HepG2) of 220 nM and an IC50 (NCI-H1975) of 650 nM. The IC50 (NCI-N87) was 288 nM.
